Patent US9695155B2, “Herbicidal substituted pyrimidinyloxy benzene compounds” (E. I. DU PONT DE NEMOURS AND COMPANY, priority 2013, dated 2017)

Columns and labels:
oilseed rape = test: Test D preemergence; format: in vivo, Brassica napus
Outline: (§1)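 In a controlled growth environment, treated and control plants were held 7 to 21 days, then compared visually. Damage was scored 0–100, where 100 means complete control. Sprays contained surfactant in a non-phytotoxic solvent; post-applied plants were at the 1- to 4-leaf stage.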

canarygrass = test: Test D postemergence; format: in vivo, Phalaris minor
Outline: as §1

winter barley = test: Test D postemergence; format: in vivo, Hordeum vulgare; details: Postemergence, scale 0 to 100 (0 no effect, 100 complete control)
Outline: as §1

spring barley = test: Test D postemergence; format: in vivo, Hordeum vulgare; details: Postemergence, scale 0 to 100 (0 no effect, 100 complete control)
Outline: as §1

green foxtail [1] = test: Test D preemergence; format: in vivo, Setaria viridis
Outline: as §1

wild buckwheat = test: Test D postemergence; format: in vivo, Polygonum convolvulus; details: Postemergence, scale 0 to 100 (0 no effect, 100 complete control)
Outline: as §1

kochia = test: Test D postemergence; format: in vivo, Kochia scoparia
Outline: as §1

lambsquarters = test: Test D postemergence; format: in vivo, Chenopodium album
Outline: as §1

green foxtail [2] = test: Test D postemergence; format: in vivo, Setaria viridis
Outline: as §1

chamomile = test: Test D postemergence; format: in vivo, Matricaria inodora
Outline: as §1

[3] = 31 g ai/ha, scale 0 (no effect) to 100 (complete control)
[4] = 62 g ai/ha, scale 0 to 100 (0 no effect, 100 complete control)
[5] = 125 g ai/ha, scale 0 to 100 (0 no effect, 100 complete control)
[6] = 250 g ai/ha, scale 0 to 100 (0 no effect, 100 complete control)

Fc1cccc(Oc2ncc(Cl)cn2)c1-n1cc(Br)cn1 [Compound 178, 2-[2-(4-bromo-1H-pyrazol-1-yl)-3-fluorophenoxy]-5-chloropyrimidine]
plant injury at 16 g/ha (oilseed rape; Brassica napus, pre-emergence, 16 g ai/ha, scale 0 (no effect) to 100 (complete control), read-out: Plant response rating, Oilseed Rape): 65% | plant injury at 31 g/ha (oilseed rape; Brassica napus, pre-emergence, 31 g ai/ha, scale 0-100, read-out: Plant response rating, Oilseed Rape): 75% | plant injury at 125 g/ha (oilseed rape; Brassica napus, pre-emergence, 125 g ai/ha, scale 0-100, read-out: Plant response rating, Oilseed Rape): 100% | pest or weed control at 16 g/ha (canarygrass; Phalaris minor, post-emergence, 16 g ai/ha, scale 0-100, read-out: Plant response rating, Canarygrass): 5% | pest or weed control at 31 g/ha (canarygrass; Phalaris minor, post-emergence, 31 g ai/ha, scale 0 to 100 (0 no effect, 100 complete control), read-out: Plant response rating, Canarygrass): 15% | pest or weed control at 62 g/ha (canarygrass; Phalaris minor, post-emergence, 62 g ai/ha, scale 0 to 100 (0 no effect, 100 complete control), read-out: Plant response rating, Canarygrass): 20% | pest or weed control at 125 g/ha (canarygrass; Phalaris minor, post-emergence, 125 g ai/ha, scale 0 to 100 (0 no effect, 100 complete control), read-out: Plant response rating, Canarygrass): 35% | plant injury at 16 g/ha (winter barley; Hordeum vulgare, post-emergence, 16 g ai/ha, read-out: Plant response rating, Barley, Winter): 0% | plant injury at 31 g/ha (winter barley; Hordeum vulgare, post-emergence, 31 g ai/ha, read-out: Plant response rating, Barley, Winter): 0% | plant injury at 62 g/ha (winter barley; Hordeum vulgare, post-emergence, 62 g ai/ha, read-out: Plant response rating, Barley, Winter): 5% | plant injury at 125 g/ha (winter barley; Hordeum vulgare, post-emergence, 125 g ai/ha, read-out: Plant response rating, Barley, Winter): 10% | plant injury at 16 g/ha (spring barley; Hordeum vulgare, post-emergence, 16 g ai/ha, read-out: Plant response rating, Barley, Spring): 0% | plant injury at 31 g/ha (spring barley; Hordeum vulgare, post-emergence, 31 g ai/ha, read-out: Plant response rating, Barley, Spring): 5% | plant injury at 62 g/ha (spring barley; Hordeum vulgare, post-emergence, 62 g ai/ha, read-out: Plant response rating, Barley, Spring): 5% | plant injury at 125 g/ha (spring barley; Hordeum vulgare, post-emergence, 125 g ai/ha, read-out: Plant response rating, Barley, Spring): 10% | pest or weed control at 16 g/ha (green foxtail [1]; Setaria viridis, pre-emergence, 16 g ai/ha, scale 0 (no effect) to 100 (complete control), read-out: Plant response rating, Foxtail, Green): 0% | pest or weed control at 31 g/ha (green foxtail [1]; Setaria viridis, pre-emergence, 31 g ai/ha, scale 0-100, read-out: Plant response rating, Foxtail, Green): 0% | pest or weed control at 62 g/ha (green foxtail [1]; Setaria viridis, pre-emergence, 62 g ai/ha, scale 0-100, read-out: Plant response rating, Foxtail, Green): 5% | pest or weed control at 125 g/ha (green foxtail [1]; Setaria viridis, pre-emergence, 125 g ai/ha, scale 0-100, read-out: Plant response rating, Foxtail, Green): 95% | pest or weed control at 16 g/ha (wild buckwheat; Fallopia convolvulus, post-emergence, 16 g ai/ha, read-out: Plant response rating, Buckwheat, Wild): 65% | pest or weed control at 31 g/ha (wild buckwheat; Fallopia convolvulus, post-emergence, 31 g ai/ha, read-out: Plant response rating, Buckwheat, Wild): 75% | pest or weed control at 62 g/ha (wild buckwheat; Fallopia convolvulus, post-emergence, 62 g ai/ha, read-out: Plant response rating, Buckwheat, Wild): 75% | pest or weed control at 125 g/ha (wild buckwheat; Fallopia convolvulus, post-emergence, 125 g ai/ha, read-out: Plant response rating, Buckwheat, Wild): 85% | pest or weed control at 16 g/ha (kochia; Bassia scoparia, post-emergence, 16 g ai/ha, scale 0-100, read-out: Plant response rating, Kochia): 60% | pest or weed control at 31 g/ha (kochia; Bassia scoparia, post-emergence, 31 g ai/ha, scale 0 to 100 (0 no effect, 100 complete control), read-out: Plant response rating, Kochia): 70% | pest or weed control at 62 g/ha (kochia; Bassia scoparia, post-emergence, 62 g ai/ha, scale 0 to 100 (0 no effect, 100 complete control), read-out: Plant response rating, Kochia): 75% | pest or weed control at 125 g/ha (kochia; Bassia scoparia, post-emergence, 125 g ai/ha, scale 0 to 100 (0 no effect, 100 complete control), read-out: Plant response rating, Kochia): 85% | pest or weed control at 16 g/ha (lambsquarters; Chenopodium album, post-emergence, 16 g ai/ha, scale 0-100, read-out: Plant response rating, Lambsquarters): 65% | pest or weed control at 31 g/ha (lambsquarters; Chenopodium album, post-emergence, 31 g ai/ha, scale 0 to 100 (0 no effect, 100 complete control), read-out: Plant response rating, Lambsquarters): 70% | pest or weed control at 62 g/ha (lambsquarters; Chenopodium album, post-emergence, 62 g ai/ha, scale 0 to 100 (0 no effect, 100 complete control), read-out: Plant response rating, Lambsquarters): 75% | pest or weed control at 125 g/ha (lambsquarters; Chenopodium album, post-emergence, 125 g ai/ha, scale 0 to 100 (0 no effect, 100 complete control), read-out: Plant response rating, Lambsquarters): 85% | pest or weed control at 16 g/ha (green foxtail [2]; Setaria viridis, post-emergence, 16 g ai/ha, scale 0-100, read-out: Plant response rating, Foxtail, Green): 15% | pest or weed control at 31 g/ha (green foxtail [2]; Setaria viridis, post-emergence, 31 g ai/ha, scale 0 to 100 (0 no effect, 100 complete control), read-out: Plant response rating, Foxtail, Green): 20% | pest or weed control at 62 g/ha (green foxtail [2]; Setaria viridis, post-emergence, 62 g ai/ha, scale 0 to 100 (0 no effect, 100 complete control), read-out: Plant response rating, Foxtail, Green): 30% | pest or weed control at 125 g/ha (green foxtail [2]; Setaria viridis, post-emergence, 125 g ai/ha, scale 0 to 100 (0 no effect, 100 complete control), read-out: Plant response rating, Foxtail, Green): 35% | pest or weed control at 16 g/ha (chamomile; Tripleurospermum inodorum, post-emergence, 16 g ai/ha, scale 0-100, read-out: Plant response rating, Chamomile): 0% | pest or weed control at 31 g/ha (chamomile; Tripleurospermum inodorum, post-emergence, 31 g ai/ha, scale 0 to 100 (0 no effect, 100 complete control), read-out: Plant response rating, Chamomile): 0% | pest or weed control at 62 g/ha (chamomile; Tripleurospermum inodorum, post-emergence, 62 g ai/ha, scale 0 to 100 (0 no effect, 100 complete control), read-out: Plant response rating, Chamomile): 5% | pest or weed control at 125 g/ha (chamomile; Tripleurospermum inodorum, post-emergence, 125 g ai/ha, scale 0 to 100 (0 no effect, 100 complete control), read-out: Plant response rating, Chamomile): 5%

N#Cc1cccc(Oc2ncc(Cl)cn2)c1-n1cc(-n2ccc(C(F)(F)F)n2)cn1 [Compound 284]
Plant response rating, Oilseed Rape (oilseed rape; [3]): 0 | Plant response rating, Oilseed Rape (oilseed rape; 62 g ai/ha, scale 0-100): 0 | Plant response rating, Oilseed Rape (oilseed rape; 125 g ai/ha, scale 0-100): 10 | Plant response rating, Oilseed Rape (oilseed rape; 250 g ai/ha, scale 0-100): 10 | Plant response rating, Canarygrass (canarygrass; 31 g ai/ha, scale 0-100): 20 | Plant response rating, Canarygrass (canarygrass; [4]): 20 | Plant response rating, Canarygrass (canarygrass; [5]): 25 | Plant response rating, Canarygrass (canarygrass; [6]): 25 | Plant response rating, Barley, Winter (winter barley; 62 g ai/ha): 15 | Plant response rating, Barley, Winter (winter barley; 31 g ai/ha): 15 | Plant response rating, Barley, Winter (winter barley; 125 g ai/ha): 20 | Plant response rating, Barley, Winter (winter barley; 250 g ai/ha): 25 | Plant response rating, Barley, Spring (spring barley; 62 g ai/ha): 15 | Plant response rating, Barley, Spring (spring barley; 31 g ai/ha): 5 | Plant response rating, Barley, Spring (spring barley; 125 g ai/ha): 20 | Plant response rating, Barley, Spring (spring barley; 250 g ai/ha): 25 | Plant response rating, Foxtail, Green (green foxtail [1]; [3]): 10 | Plant response rating, Foxtail, Green (green foxtail [1]; 62 g ai/ha, scale 0-100): 5 | Plant response rating, Foxtail, Green (green foxtail [1]; 125 g ai/ha, scale 0-100): 10 | Plant response rating, Foxtail, Green (green foxtail [1]; 250 g ai/ha, scale 0-100): 80 | Plant response rating, Buckwheat, Wild (wild buckwheat; 62 g ai/ha): 100 | Plant response rating, Buckwheat, Wild (wild buckwheat; 31 g ai/ha): 100 | Plant response rating, Buckwheat, Wild (wild buckwheat; 125 g ai/ha): 100 | Plant response rating, Buckwheat, Wild (wild buckwheat; 250 g ai/ha): 100 | Plant response rating, Kochia (kochia; 31 g ai/ha, scale 0-100): 100 | Plant response rating, Kochia (kochia; [4]): 100 | Plant response rating, Kochia (kochia; [5]): 100 | Plant response rating, Kochia (kochia; [6]): 100 | Plant response rating, Lambsquarters (lambsquarters; 31 g ai/ha, scale 0-100): 85 | Plant response rating, Lambsquarters (lambsquarters; [4]): 98 | Plant response rating, Lambsquarters (lambsquarters; [5]): 100 | Plant response rating, Lambsquarters (lambsquarters; [6]): 100 | Plant response rating, Foxtail, Green (green foxtail [2]; 31 g ai/ha, scale 0-100): 10 | Plant response rating, Foxtail, Green (green foxtail [2]; [4]): 10 | Plant response rating, Foxtail, Green (green foxtail [2]; [5]): 50 | Plant response rating, Foxtail, Green (green foxtail [2]; [6]): 85 | Plant response rating, Chamomile (chamomile; 31 g ai/ha, scale 0-100): 0 | Plant response rating, Chamomile (chamomile; [4]): 0 | Plant response rating, Chamomile (chamomile; [5]): 10 | Plant response rating, Chamomile (chamomile; [6]): 10
